# Assay results as given in US20240057587A1, “ORGANIC AMMONIUM SALT AND HYDROGEN-BONDING MATERIAL TREATMENT AGENT USING SAME” (MIYOSHI OIL & FAT CO.,LTD., priority 2019, published 2024).
# Where two headings read alike, the source gives them in different places.
# Experiments:
# [1] = target: T1, urease (Canavalia ensiformis, UniProt P07374); assay type: biochemical, sword bean
# [2] = target: T2, cytochrome C (Equus caballus, UniProt P00004); test: Protein long-term stability, 50% aqueous solution; set-up: species or system Horse
# T2 construct: a reagent produced by NACALAI TESQUE, INC; (Horse Heart, molecular weight 12384) was used; purchased NACALAI TESQUE, INC; host or cells: horse heart (tissue origin)
# Method: At first, changes in amide absorption by IR spectrum were precisely observed, and there were confirmed the higher-order structures of protein (turn, α-helix, random coil, β-sheet). The amide I region (1,600 to 1,700 cm^−1) and the amide II region (1,500 to 1,600 cm^−1) were measured by ATR method using a Fourier transform infrared spectrophotometer (FT/IR-6100 by JASCO Corporation), and peaks were then detected based on a difference(s) between a cytochrome C-free organic ammonium salt sample (blank) and a cytochrome C-containing organic ammonium salt sample (sample).
# Further, the activity state of cytochrome C (Fe^2+: reduced form, Fe^3+: oxidized form) was confirmed via absorptions in UV spectrum. The measurement was conducted using an ultraviolet-visible spectrophotometer and a quartz cell having an optical path width of 2 mm, immediately after diluting the cytochrome C-containing organic ammonium salt sample to 1% with a 50 mM phosphate buffer of pH 7.4 (prepared using 50 mM potassium dihydrogen phosphate and 50 mM dipotassium hydrogen phosphate).
# [3] = target: T1, urease; assay type: biochemical, sword bean; remark: listed apart in the source
# [4] = target: T1, urease; assay type: biochemical, sword bean; remark: listed apart in the source
# [5] = target: T2, cytochrome C; test: Protein long-term stability (IR and UV spectrum), solid sample; set-up: species or system Horse
# [6] = Metal oxide dispersibility test (zirconium oxide); assay type: physicochemical; conditions: 0.25 g compound, 0.50 g water, 0.10 g zirconium oxide (IV); visual
# [7] = Metal oxide dispersibility test (titanium oxide); assay type: physicochemical; conditions: 0.25 g compound, 0.50 g water, 0.10 g titanium oxide (IV); visual
# [8] = 0.25 g compound, 0.50 g water, 0.10 g barium titanate; visual
# [9] = dispersion liquid dried at 50° C. under reduced pressure for three hours, 0.50 g water added, remixed; visual
# [10] = 0.25 g compound, 0.50 g water, 0.10 g zinc oxide; visual
# [11] = Vali Fast Black 3830 dispersion liquid dried at 50° C. under reduced pressure for three hours, 0.7 g water added, remixed; visual
# [12] = Organic dye dispersibility test; assay type: physicochemical; conditions: 0.2 g compound, 0.7 g water, 0.1 g Vali Fast Black 3830; ultrasonic dispersion; after 24 hours; visual
# [13] = dispersion liquid dried at 50° C. under reduced pressure for three hours, 0.50 g water added, remixed; visual; remark: listed apart in the source
# [14] = urease, solid sample mixed by mortar, 40° C., 80% RH, after 30 days, 1:1
# [15] = urease, solid sample, solvent distilled away from dissolution solution, 40° C., 80% RH, after 30 days, 1:1
# [16] = urease in 50 wt % aqueous solution of compound, 40° C., 80% RH, after 30 days, Stabilizer:Enzyme = 1:1
# [17] = solid sample, 40° C., 80% RH, after 30 days, Stabilizer:Enzyme = 0.1:1
# [18] = solid sample, 40° C., 80% RH, after 30 days, Stabilizer:Enzyme = 1:1
# [19] = solid sample, 40° C., 80% RH, after 30 days, Stabilizer:Enzyme = 10:1
# [20] = cytochrome C in 50 wt % aqueous solution of compound, 40° C., after 30 days, 1:1
# [21] = cytochrome C, solid sample, 40° C., 80% RH, after 30 days, Stabilizer:Protein = 0.1:1
# [22] = cytochrome C, solid sample, 40° C., 80% RH, after 30 days, Stabilizer:Protein = 1:1
# [23] = cytochrome C, solid sample, 40° C., 80% RH, after 30 days, Stabilizer:Protein = 10:1
# T1 sequence (P07374 whole entry, looked up): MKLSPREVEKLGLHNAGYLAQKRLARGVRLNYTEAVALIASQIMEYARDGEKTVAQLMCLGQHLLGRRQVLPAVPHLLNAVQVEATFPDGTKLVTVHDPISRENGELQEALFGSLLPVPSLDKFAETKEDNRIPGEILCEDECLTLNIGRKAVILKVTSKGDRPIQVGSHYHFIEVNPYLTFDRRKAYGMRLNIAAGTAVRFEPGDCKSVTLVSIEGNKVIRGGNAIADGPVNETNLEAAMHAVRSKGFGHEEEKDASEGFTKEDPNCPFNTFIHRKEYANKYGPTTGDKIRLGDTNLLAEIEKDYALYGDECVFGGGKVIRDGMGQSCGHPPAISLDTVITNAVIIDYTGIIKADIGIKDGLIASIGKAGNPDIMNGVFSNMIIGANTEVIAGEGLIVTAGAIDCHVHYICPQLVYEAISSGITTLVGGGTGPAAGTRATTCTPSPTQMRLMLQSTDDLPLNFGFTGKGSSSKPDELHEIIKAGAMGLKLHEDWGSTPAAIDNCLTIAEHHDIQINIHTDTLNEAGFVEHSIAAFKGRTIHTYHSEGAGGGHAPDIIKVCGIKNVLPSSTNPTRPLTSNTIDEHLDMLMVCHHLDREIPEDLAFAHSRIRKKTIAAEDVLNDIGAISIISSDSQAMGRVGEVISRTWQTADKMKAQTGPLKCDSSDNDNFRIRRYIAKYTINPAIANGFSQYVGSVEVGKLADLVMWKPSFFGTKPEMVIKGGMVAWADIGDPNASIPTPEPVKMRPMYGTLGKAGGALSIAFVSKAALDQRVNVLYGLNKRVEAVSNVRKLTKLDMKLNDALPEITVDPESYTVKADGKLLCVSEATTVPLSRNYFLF
# T2 sequence (P00004 whole entry): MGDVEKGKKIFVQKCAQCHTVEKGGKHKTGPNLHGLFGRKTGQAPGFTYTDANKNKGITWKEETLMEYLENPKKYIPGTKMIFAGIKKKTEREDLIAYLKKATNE
SMILES,"Enzyme activity retention rate (%) (after 30 days) Stabilizer:Enzyme = 1:1, Mixed by mortar [1, 14]","Enzyme activity retention rate (%) (after 30 days) Stabilizer:Enzyme = 1:1, Solvent distilled away from dissolution solution [1, 15]","Enzyme activity retention rate(%) (after 30 days) Stabilizer: Enzyme = 1:1 [3, 16]","Enzyme activity retention rate(%) (after 30 days) Stabilizer: Enzyme = 0.1:1 [4, 17]","Enzyme activity retention rate(%) (after 30 days) Stabilizer: Enzyme = 1:1 [4, 18]","Enzyme activity retention rate(%) (after 30 days) Stabilizer: Enzyme = 10:1 [4, 19]",Protein long-term stability (after 30 days) Stabilizer: Protein = 0.1:1 [5],Protein long-term stability (after 30 days) Stabilizer: Protein = 1:1 [5],Protein long-term stability (after 30 days) Stabilizer: Protein = 10:1 [5],"Enzyme activity retention rate (%) (after 30 days) Stabilizer:Enzyme = 1:1, Mixed by mortar [1]","Enzyme activity retention rate (%) (after 30 days) Stabilizer:Enzyme = 1:1, Solvent distilled away from dissolution solution [1]",Enzyme activity retention rate(%) (after 30 days) Stabilizer: Enzyme = 1:1 [3],Enzyme activity retention rate(%) (after 30 days) Stabilizer: Enzyme = 0.1:1 [4],Enzyme activity retention rate(%) (after 30 days) Stabilizer: Enzyme = 1:1 [4],Enzyme activity retention rate(%) (after 30 days) Stabilizer: Enzyme = 10:1 [4],"Protein long-term stability (after 30 days) Stabilize:Protein = 1:1 [2, 20]","Protein long-term stability (after 30 days) Stabilizer: Protein = 0.1:1 [5, 21]","Protein long-term stability (after 30 days) Stabilizer: Protein = 1:1 [5, 22]","Protein long-term stability (after 30 days) Stabilizer: Protein = 10:1 [5, 23]",also measured
NC(CO)(CO)CO.O=C(O)c1ccccc1 [Working example 60],0%,20%,21%,7%,20%,29%,◯,◯,◯,–,–,–,–,–,–,–,–,–,–,Protein long-term stability (after 30 days) Stabilize:Protein = 1:1 [2]: ○ ○ ○
"CC(O)C(=O)O.CCCCN(CCCC)CCCC [Comparative example 1, Tributyl Ammonium Lactate, reference compound]",–,–,–,–,–,–,×,×,×,0%,0%,0%,0%,0%,0%,–,–,–,–,–
"CC(=O)[O-].C[N+](C)(C)CCO [Comparative example 2, Choline Acetate, reference compound]",0%,3%,2%,2%,3%,0%,×,×,×,–,–,–,–,–,–,–,–,–,–,–
NC(CO)(CO)CO [Working example 83],0%,24%,20%,16%,24%,38%,–,–,–,–,–,–,–,–,–,○ ○ ○,◯,◯,◯,–
NC(CO)(CO)CO [Working example 109],–,–,–,–,–,–,–,–,–,–,–,–,–,–,–,–,–,–,–,Zirconium oxide dispersibility [6]: ○ ○ ○ ○; Titanium oxide dispersibility [7]: ○ ○ ○ ○; Barium titanate dispersibility [8]: ○ ○ ○ ○; Redispersibility Zirconium oxide [9]: ○ ○ ○ ○; Zinc oxide dispersibility [10]: ○ ○ ○ ○; Redispersibility Dye [11]: ○ ○ ○ ○; Dye dispersibility [12]: ○ ○ ○ ○; Redispersibility Titanium oxide [13]: ○ ○ ○ ○
NC(CO)(CO)CO [Working example 3],11%,50%,32%,20%,50%,53%,–,–,–,–,–,–,–,–,–,○ ○ ○,◯,◯,◯,–
"CCCCn1cc[n+](C)c1.[Br-] [Comparative example 3, BMI-Br, reference compound]",–,–,–,–,–,–,–,–,–,0%,0%,0%,0%,0%,0%,–,×,×,×,–
OCCNCCO [Working example 24],5%,25%,10%,9%,25%,25%,–,–,–,–,–,–,–,–,–,○,◯,◯,◯,–
NCC(O)C(O)C(O)C(O)CO (centres unmarked) [Working example 29],0%,18%,11%,5%,18%,21%,–,–,–,–,–,–,–,–,–,○,◯,◯,◯,–
Br.NC(CO)(CO)CO [Working example 78],–,–,–,–,–,–,◯,◯,◯,0%,24%,3%,3%,4%,18%,–,–,–,–,Protein long-term stability (after 30 days) Stabilize:Protein = 1:1 [2]: ○ ○ ○
"O=C[C@H](O)[C@@H](O)[C@H](O)[C@H](O)CO [Comparative example 4, Glucose, reference compound]",–,–,–,–,–,–,–,–,–,0%,0%,0%,0%,0%,0%,–,×,×,×,–
